Patent US20260174875A1 (Novo Nordisk A/S, priority 2023, published 2026)
Read-outs that look alike come from different tables or passages of the source. Numbered stars: 1 amine (or outer) side, 2 acyl side, 3 side chain; on linkers, the order of the positions; unused ones are H or OH. Square brackets hold non-standard residues; d marks the D form. Side chains are listed from the residue outwards. * marks the point of attachment. C18 diacid = O=C(O)CCCCCCCCCCCCCCCCC(=O)*; C16 diacid = O=C(O)CCCCCCCCCCCCCCC(=O)*; γGlu = O=C(O)[C@H](CCC(=O)[*:2])N[*:1]; AEEA = NCCOCCOCC(=O)O; Aib = CC(C)(N)C(=O)O

Columns and labels:
[1] = molecular target: T1, human amylin receptor (hAMYR3) (Homo sapiens, UniProt O60896+P30988); assay: Amylin receptor assay, method A (CRE-luciferase reporter, BHK cells); type: cell-based
T1 construct: host or cells: BHK cells (Hollex-1 line expressing hCTR(a) and CRE-Luc), further transfected with human RAMP3

[2] = Chemical stability assessment in formulation (UPLC-UV-MS purity loss at 37° C.); type: physicochemical; settings: 8 mM phosphate buffer pH 7.4, 1 mg/mL, 2 weeks
Summary of the method: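 Degradation tracked by UPLC-UV-MS (formic acid/acetonitrile gradient) on samples drawn over 2 weeks at 37° C. Solutions were made at a 1 mg/mL target in 8 mM phosphate, pH 7.4, kept in sealed vials and frozen after sampling.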

[3] = tested on: Male Sprague Dawley (SD) rats; assay: Efficacy testing on appetite: acute food intake in ad libitum fed normal weight rats; type: in vivo, rat; settings: for Food intake (relative to vehicle) Day 1: day 1 [0-24 hours]; for Food intake (relative to vehicle) Day 2: day 2 [24-48 hours]; for Food intake (relative to vehicle) Day 3: day 3 [48-72 hours]
Description: Male Sprague Dawley (SD) rats from Taconic, Denmark were used for the acute food intake experiments, wherein the principles of laboratory animal care were followed.
The rats arrived at least 10-14 days before the start of the experiment to allow acclimatization to experimental settings. During this period, the animals were handled (fixation by restrain in neck skin) at least 2 times. Immediately upon arrival, rats were changed to a reversed light cycle (dark from 11 am-11 pm) and were transferred to an automated food intake measuring system (HM2 system, MBRose; Faaborg, Denmark). […] To enable recording of individual food intake, rats were ID chipped. Three rats were housed in each cage. During the acclimatization period, in which the rats get used to the new light cycle and diet (LF 10% (D12450B), from Research Diets Inc.), the animals had free access to food and water. Since rats are normally active and consume most of their daily calories during the dark period, rats were dosed in the morning right before lights were turned off. Such a set-up results in the lowest data variation and highest test sensitivity. […] In each cage there were animals from three different treatment groups (to eliminate potential cage effects (e.g. cage malfunction) on primary readout: food intake). The rats were dosed once subcutaneously (s.c.) with the peptide of interest according to body weight (10 or 30 nmol/kg) in vehicle (0.5 ml/kg) using a NovoPen® (Novo Nordisk, Bagsvæed, Denmark).
The compounds of the invention were formulated (20 or 60 nmol/ml) in the following vehicle: 8 mM phosphate; 250 mM glycerol; 0.007% polysorbate 20, pH 7.4.
After dosing, the rats were returned to their home cages, where they continued to have ad libitum access to chow and water. The food consumption was recorded individually and continuously by the HM2 system from 0-72 h after test compound administration. Data obtained by the HM-2 system were stored in a HMBase SQL database (Firebird® relational database management system) and were processed by HM2Lab software (MBRose; Faaborg, Denmark) installed in an embedded computer. The feeding system is a highly sensitive system with a load resolution of 0.001 g.

[4] = hAMYR3 Potency, 1% HSA, EC50, method A, in the presence of 1% HSA
[5] = hAMYR3 Potency, no HSA, EC50, method A, absence of HSA
[6] = method A, absence of HSA, read-out: hAMYR3 Potency, no HSA, EC50

T1 sequence (P30988 25-474): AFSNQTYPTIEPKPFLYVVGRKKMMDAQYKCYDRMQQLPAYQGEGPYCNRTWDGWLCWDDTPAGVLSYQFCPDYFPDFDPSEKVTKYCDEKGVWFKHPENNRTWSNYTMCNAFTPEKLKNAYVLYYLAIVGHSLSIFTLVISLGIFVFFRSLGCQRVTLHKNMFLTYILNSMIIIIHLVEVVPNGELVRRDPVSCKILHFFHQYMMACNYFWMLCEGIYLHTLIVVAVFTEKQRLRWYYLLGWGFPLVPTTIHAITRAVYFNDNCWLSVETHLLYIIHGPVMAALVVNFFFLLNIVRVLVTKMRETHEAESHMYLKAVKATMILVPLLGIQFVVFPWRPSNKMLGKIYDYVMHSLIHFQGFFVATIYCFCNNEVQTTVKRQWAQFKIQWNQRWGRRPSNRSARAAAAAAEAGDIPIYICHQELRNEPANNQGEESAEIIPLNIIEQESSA
T1 sequence (O60896 24-148): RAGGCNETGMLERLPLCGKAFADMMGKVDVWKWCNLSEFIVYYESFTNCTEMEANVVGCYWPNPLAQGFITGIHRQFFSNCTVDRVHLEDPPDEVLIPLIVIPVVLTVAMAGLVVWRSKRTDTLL

Substance | EC50 [1, 4] | Purity loss per week at 37° C. [2] | EC50 [1, 6] | EC50 [1, 5] | Food intake (relative to vehicle) Day 1 ([3]; single dose 10 nmol/kg) | Food intake (relative to vehicle) Day 2 ([3]; single dose 10 nmol/kg) | Food intake (relative to vehicle) Day 3 ([3]; single dose 10 nmol/kg) | Food intake (relative to vehicle) Day 1 ([3]; single dose 30 nmol/kg) | Food intake (relative to vehicle) Day 2 ([3]; single dose 30 nmol/kg) | Food intake (relative to vehicle) Day 3 ([3]; single dose 30 nmol/kg)
H[Aib]HGTFTSDYSILLEEQAAREFIEWLLAGGPSK([AEEA-AEEA-γGlu-C16 diacid])GAPPPSGGGEASHLSTAQTARLSAELHRLADLPRTETGSGSP-NH2 [Compound 61] | 30.8 pM | 2.0% | – | 2.97 pM | −86% | −92% | −34% | – | – | –
H[Aib]HGTFTSDYSILLEEQAAREFIEWLLAGGPSK([AEEA-AEEA-γGlu-C16 diacid])GEASELSTAALGRLSAELHRLATLPRTETGSGSP-NH2 [Compound 17] | 33.6 pM | 4.2% | 5.13 pM | – | −84% | −78% | −11% | – | – | –
H[Aib]HGTFTSDYSILLEEQAAREFIEWLLAGGPSK([AEEA-AEEA-γGlu-C16 diacid])GEASQLSTAALGRLSAELHRLADLPRTETGSGSP-NH2 [Compound 62] | 28.8 pM | 3.0% | – | 3.35 pM | −74% | −42% | −13% | – | – | –
H[Aib]HGTFTSDYSILLEEQAAREFIEWLLAGGPSK([AEEA-AEEA-γGlu-C18 diacid])GAPPPSGGGEASELSTAALGRLSAELHELATLPRTETGSGSP-NH2 [Compound 15] | 82.2 pM | 3.8% | 5.01 pM | – | −30% | −42% | −9% | – | – | –
H[Aib]HGTFTSDYSILLEEQAAREFIEWLLAGGPSSGAGQAPGQAPGASHLSTAQTQRLSAELHRLK([AEEA-AEEA-γGlu-C18 diacid])TLPRTETGSGSP-NH2 [Compound 91] | 28.8 pM | 2.8% | 2.26 pM | – | −96% | −84% | −33% | – | – | –
H[Aib]HGTFTSDYSILLEEQAAREFIEWLLAGGPSSGAGQAPGQAPLASHLSTAQTQRLSAELHK([AEEA-AEEA-γGlu-C18 diacid])LATLPRTETGSGSP-NH2 [Compound 93] | 66.4 pM | 2.8% | 2.23 pM | – | −94% | −61% | −25% | – | – | –
Y[Aib]EGTFTSDYSILLEEQAAREFIEWLLAGGPSK([AEEA-AEEA-γGlu-C18 diacid])GEASHLSTAQTARLSAELHELATLPRTETGSGSP-NH2 [Compound 35] | – | 0.3% | 4.21 pM | – | – | – | – | −42% | −18% | −16%
Y[Aib]EGTFTSDYSILLEEQAAREFIEWLLAGGPSSGAGQAPGQAPGASHLSTAQTQRLSAELHRLK([AEEA-AEEA-γGlu-C18 diacid])TLPRTETGSGSP-NH2 [Compound 56] | 44.9 pM | 0.6% | 2.36 pM | – | −69% | −77% | −10% | – | – | –
Y[Aib]EGTFTSDYSILLEEQAAREFIEWLLAGGPSSGEASHLSTAQTQRLSAELHK([AEEA-AEEA-γGlu-C18 diacid])LATLPRTETGSGSP-NH2 [Compound 50] | 185 pM | 0.7% | 3.2 pM | – | −54% | −60% | −21% | – | – | –
Y[Aib]EGTFTSDYSILLEEQAAREFIEWLLAGGPSSGEASHLSTAQTQRLSAK([AEEA-AEEA-γGlu-C18 diacid])LHRLATLPRTETGSGSP-NH2 [Compound 79] | 53.4 pM | 1.3% | 3.53 pM | – | −70% | −54% | −5% | – | – | –

More lines, in order of falling EC50 [1, 6], values ahead:

EC50 [1, 4] | Purity loss per week at 37° C. [2] | EC50 [1, 6] | Substance | EC50 [1, 5] | Food intake (relative to vehicle) Day 1 ([3]; single dose 10 nmol/kg) | Food intake (relative to vehicle) Day 2 ([3]; single dose 10 nmol/kg) | Food intake (relative to vehicle) Day 3 ([3]; single dose 10 nmol/kg) | Food intake (relative to vehicle) Day 1 ([3]; single dose 30 nmol/kg) | Food intake (relative to vehicle) Day 2 ([3]; single dose 30 nmol/kg) | Food intake (relative to vehicle) Day 3 ([3]; single dose 30 nmol/kg)
62.4 pM | 0.8% | 3.23 pM | Y[Aib]EGTFTSDYSILLEEQAAREFIEWLLAGGPSSGEASHLSTAQTQRLSAELHRLK([AEEA-AEEA-γGlu-C18 diacid])TLPRTETGSGSP-NH2 [Compound 80] | – | −84% | −78% | −23% | – | – | –
75.9 pM | 0.8% | 3.22 pM | Y[Aib]EGTFTSDYSILLEEQAAREFIEWLLAGGPSSGAGQAPGQAPGASHLSTAALGRLSAELHK([AEEA-AEEA-γGlu-C18 diacid])LATLPRTETGSGSP-NH2 [Compound 53] | – | −75% | −90% | −33% | – | – | –
85 pM | 0.2% | 3 pM | Y[Aib]EGTFTSDYSILLEEQAAREFIEWLLAGGPSSGAGQAPGQAPGASHLSTAQTQRLSAELHRLATLPK([AEEA-AEEA-γGlu-C18 diacid])TETGSGSP-NH2 [Compound 57] | – | −75% | −88% | −14% | – | – | –
70.2 pM | 3.7% | 2.86 pM | H[Aib]HGTFTSDYSILLEEQAAREFIEWLLAGGPSK([AEEA-AEEA-γGlu-C18 diacid])GEASQLSTAALGRLSAELHTLATLPRTETGSGSP-NH2 [Compound 63] | – | −79% | −80% | −17% | – | – | –
17.1 pM | 3.5% | 1.83 pM | H[Aib]HGTFTSDYSILLEEQAAREFIEWLLAGGPSSGAGQAPGQAPGASHLSTAQTQRLSAK([AEEA-AEEA-γGlu-C18 diacid])LHRLATLPRTETGSGSP-NH2 [Compound 78] | – | −96% | −57% | −3% | – | – | –
